Reference: patent publication US7459451B2, “Pyrazolopyridine derivatives” (Astellas Pharma Inc., priority 2004, dated 2008)

SMILES	melting point [°C]
CCn1ncc2c(-c3cncc(Br)c3)c(C(=O)O)c(COC)nc21 [Example 86, 4-(5-Bromo-3-pyridyl)-1-ethyl-6-(methoxymethyl)-1H-pyrazolo[3,4-b]pyridine-5-carboxylic acid]	162 to 163
CCOC(=O)c1c(C)nc2c(cnn2CC)c1-c1ccnc(Cl)c1 [Example 3, Ethyl 4-(2-chloro-4-pyridyl)-1-ethyl-6-methyl-1H-pyrazolo[3,4-b]pyridine-5-carboxylate]	109 to 110
CCn1ncc2c(-c3cncc(C)c3)c(CCC(=O)O)c(COCC3CCCCC3)nc21 [Example 96, 3-[6-[(Cyclohexylmethoxy)methyl]-1-ethyl-4-(5-methyl-3-pyridyl)-1H-pyrazolo[3,4-b]pyridin-5-yl]propanoic acid]	183 to 184
CCn1ncc2c(-c3cncc(Br)c3)c(CCC(=O)O)c(C)nc21 [Example 93, 3-[4-(5-Bromo-3-pyridyl)-1-ethyl-6-methyl-1H-pyrazolo[3,4-b]pyridin-5-yl]propanoic acid]	178 to 179.5
CCn1ncc2c(-c3cncc(OC)c3)c(/C=C/C(=O)O)c(-c3ccccc3)nc21 [Example 218, (2E)-3-[1-Ethyl-4-(5-methoxy-3-pyridyl)-6-phenyl-1H-pyrazolo[3,4-b]pyridin-5-yl]acrylic acid]	253 to 254
CCn1ncc2c(-c3cncc(C)c3)c(C(=O)NCCOc3ccccc3)c(-c3ccccc3)nc21 [Example 246, 1-Ethyl-4-(5-methyl-3-pyridyl)-N-(2-phenoxyethyl)-6-phenyl-1H-pyrazolo[3,4-b]pyridine-5-carboxamide]	175 to 176
CCn1ncc2c(-c3cncc(Br)c3)c(/C=C/C(=O)O)c(COCC3CC3)nc21 [Example 88, (2E)-3-{4-(5-Bromo-3-pyridyl)-6-[(cyclopropylmethoxy)methyl]-1-ethyl-1H-pyrazolo[3,4-b]pyridin-5-yl}acrylic acid]	183 to 184
CCn1ncc2c(-c3ccc(Cl)s3)c(/C=C/C(=O)O)c(-c3ccccc3)nc21 [Example 207, (2E)-3-[4-(5-Chloro-2-thienyl)-1-ethyl-6-phenyl-1H-pyrazolo[3,4-b]pyridin-5-yl]acrylic acid]	187 to 188
CCn1ncc2c(-c3cncc(C)c3)c(/C=C/C(=O)O)c(C3CCCCC3)nc21 [Example 190, (2E)-3-[6-Cyclohexyl-1-ethyl-4-(5-methyl-3-pyridyl)-1H-pyrazolo[3,4-b]pyridin-5-yl]acrylic acid]	255 to 257
CCn1ncc2c(-c3ccnc(Cl)c3)c(/C=C/C(=O)O)c(-c3ccccc3)nc21 [Example 204, (2E)-3-[4-(2-Chloro-4-pyridyl)-1-ethyl-6-phenyl-1H-pyrazolo[3,4-b]pyridin-5-yl]acrylic acid]	> 250
CCn1ncc2c(-c3cncc(C)c3)c(CCC(=O)O)c(CC3CC3)nc21 [Example 241, 3-[6-(Cyclopropylmethyl)-1-ethyl-4-(5-methyl-3-pyridyl)-1H-pyrazolo[3,4-b]pyridin-5-yl]propanoic acid]	184 to 185
Cc1cncc(-c2c(/C=C/C(=O)O)c(C)nc3c2cnn3C)c1 [Example 90, (2E)-3-[1,6-Dimethyl-4-(5-methyl-3-pyridyl)-1H-pyrazolo[3,4-b]pyridin-5-yl]acrylic acid]	269 to 272
CCn1ncc2c(CC3CCCCC3)c(/C=C/C(=O)O)c(-c3ccccc3)nc21 [Example 206, (2E)-3-[4-(Cyclohexylmethyl)-1-ethyl-6-phenyl-1H-pyrazolo[3,4-b]pyridin-5-yl]acrylic acid]	201 to 202
CCn1ncc2c(-c3cncc(C)c3)c(/C=C/C(=O)O)c(C3CC3)nc21 [Example 214, (2E)-3-[6-Cyclopropyl-1-ethyl-4-(5-methyl-3-pyridyl)-1H-pyrazolo[3,4-b]pyridin-5-yl]acrylic acid]	221 to 222
CCC(CC)NC(=O)c1c(-c2ccccc2)nc2c(cnn2CC)c1-c1cncc(C)c1 [Example 245, 1-Ethyl-N-(1-ethylpropyl)-4-(5-methyl-3-pyridyl)-6-phenyl-1H-pyrazolo[3,4-b]pyridine-5-carboxamide]	170 to 172
CCn1ncc2c(-c3cccc(Cl)c3)c(/C=C/C(=O)O)c(COC)nc21 [Example 191, (2E)-3-[4-(3-Chlorophenyl)-1-ethyl-6-(methoxymethyl)-1H-pyrazolo[3,4-b]pyridin-5-yl]acrylic acid]	234 to 235
CCn1ncc2c(-c3cncc(C)c3)c(C(=O)NC3Cc4ccccc4C3)c(-c3ccccc3)nc21 [Example 66, N-(2,3-Dihydro-1H-inden-2-yl)-1-ethyl-4-(5-methyl-3-pyridyl)-6-phenyl-1H-pyrazolo[3,4-b]pyridine-5-carboxamide]	269 to 270
CCn1ncc2c(-c3cncc(Cl)c3)c(/C=C/C(=O)O)c(COC)nc21 [Example 231, (2E)-3-[4-(5-chloro-3-pyridyl)-1-ethyl-6-(methoxymethyl)-1H-pyrazolo[3,4-b]pyridin-5-yl]acrylic acid]	187 to 188
CCn1ncc2c(-c3cncc(C)c3)c(C(=O)NCC3CCCCC3)c(-c3ccccc3)nc21 [Example 247, N-(Cyclohexylmethyl)-1-ethyl-4-(5-methyl-3-pyridyl)-6-phenyl-1H-pyrazolo[3,4-b]pyridine-5-carboxamide]	197 to 199

SMILES	melting point [°C]
CCOCc1nc2c(cnn2CC)c(-c2cncc(C)c2)c1/C=C/C(=O)O [Example 234, (2E)-3-[6-(Ethoxymethyl)-1-ethyl-4-(5-methyl-3-pyridyl)-1H-pyrazolo[3,4-b]pyridin-5-yl]acrylic acid]	187 to 188
CCn1ncc2c(-c3cncc(C)c3)c(/C=C/C(=O)O)c(C)nc21 [Example 85, (2E)-3-[1-Ethyl-6-methyl-4-(5-methyl-3-pyridyl)-1H-pyrazolo[3,4-b]pyridin-5-yl]acrylic acid]	239 to 241
CCn1ncc2c(-c3cncc(C)c3)c(C#N)c(C)nc21 [Example 74, 1-Ethyl-6-methyl-4-(5-methyl-3-pyridyl)-1H-pyrazolo[3,4-b]pyridine-5-carbonitrile]	160 to 161
CCn1ncc2c(-c3cncc(C)c3)c(CCC(=O)O)c(C3CC3)nc21 [Example 343, 3-[6-Cyclopropyl-1-ethyl-4-(5-methyl-3-pyridyl)-1H-pyrazolo[3,4-b]pyridin-5-yl]propanoic acid]	205 to 207
CCn1ncc2c(-c3cncc(C)c3)c(/C=C/C(=O)O)c(CC(C)(C)C)nc21 [Example 236, (2E)-3-[6-(2,2-Dimethylpropyl)-1-ethyl-4-(5-methyl-3-pyridyl)-1H-pyrazolo[3,4-b]pyridin-5-yl]acrylic acid]	216 to 217.5
CCn1ncc2c(-c3cncc(C)c3)c(C(=O)NCc3ccc(OC)cc3)c(-c3ccccc3)nc21 [Example 65, 1-ethyl-N-(4-methoxybenzyl)-4-(5-methyl-3-pyridyl)-6-phenyl-1H-pyrazolo[3,4-b]pyridine-5-carboxamide]	203 to 204
CCn1ncc2c(-c3cncc(C)c3)c(/C=C/C(=O)O)c(COCC3CC3)nc21 [Example 87, (2E)-3-[6-[(Cyclopropylmethoxy)methyl]-1-ethyl-4-(5-methyl-3-pyridyl)-1H-pyrazolo[3,4-b]pyridin-5-yl]acrylic acid]	187 to 189
CCn1ncc2c(-c3cncc(C)c3)c(CCC(=O)O)c(C#N)nc21 [Example 100, 3-[6-Cyano-1-ethyl-4-(5-methyl-3-pyridyl)-1H-pyrazolo[3,4-b]pyridin-5-yl]propanoic acid]	209 to 210
CCn1ncc2c(-c3cncc(Cl)c3)c(/C=C/C(=O)O)c(-c3ccccc3)nc21 [Example 213, (2E)-3-[4-(5-Chloro-3-pyridyl)-1-ethyl-6-phenyl-1H-pyrazolo[3,4-b]pyridin-5-yl]acrylic acid]	242 to 244
CCn1ncc2c(-c3ccc(Cl)nc3)c(/C=C/C(=O)O)c(-c3ccccc3)nc21 [Example 208, (2E)-3-[4-(6-Chloro-3-pyridyl)-1-ethyl-6-phenyl-1H-pyrazolo[3,4-b]pyridin-5-yl]acrylic acid]	255 to 258
CCn1ncc2c(-c3cncc(C)c3)c(CCC(=O)O)c(-c3ocnc3C)nc21 [Example 79, 3-[1-ethyl-6-(4-methyl-1,3-oxazol-5-yl)-4-(5-methyl-3-pyridyl)-1H-pyrazolo[3,4-b]pyridin-5-yl]propanoic acid]	184 to 185.5
CCn1ncc2c(-c3cncc(C)c3)c(CCC(=O)O)c(C3CCC3)nc21 [Example 230, 3-[6-cyclobutyl-1-ethyl-4-(5-methyl-3-pyridyl)-1H-pyrazolo[3,4-b]pyridin-5-yl]propanoic acid]	212 to 213
CCn1ncc2c(-c3cncc(C)c3)c(CCC(=O)O)c(COC)nc21 [Example 92, 3-[1-Ethyl-6-(methoxymethyl)-4-(5-methyl-3-pyridyl)-1H-pyrazolo[3,4-b]pyridin-5-yl]propanoic acid]	154 to 155
CCn1ncc2c(-c3cncc(C)c3)c(CCC(=O)O)c(-c3ccccc3)nc21 [Example 98, 3-[1-Ethyl-4-(5-methyl-3-pyridyl)-6-phenyl-1H-pyrazolo[3,4-b]pyridin-5-yl]propanoic acid]	235 to 237
CCn1ncc2c(-c3cncc(C)c3)c(CCC(=O)O)c(C)nc21 [Example 94, 3-[1-Ethyl-6-methyl-4-(5-methyl-3-pyridyl)-1H-pyrazolo[3,4-b]pyridin-5-yl]propanoic acid]	179 to 181
CCn1ncc2c(-c3ccccc3)c(/C=C/C(=O)O)c(-c3ccccc3)nc21 [Example 211, (2E)-3-(1-Ethyl-4,6-diphenyl-1H-pyrazolo[3,4-b]pyridin-5-yl)acrylic acid]	> 250
CCC(CC)c1nc2c(cnn2CC)c(-c2cncc(C)c2)c1/C=C/C(=O)O [Example 201, (2E)-3-[1-Ethyl-6-(1-ethylpropyl)-4-(5-methyl-3-pyridyl)-1H-pyrazolo[3,4-b]pyridin-5-yl]acrylic acid]	197 to 199
CCn1ncc2c(-c3cncc(Br)c3)c(/C=C/C(=O)O)c(COC)nc21 [Example 226, (2E)-3-[4-(5-Bromo-3-pyridyl)-1-ethyl-6-(methoxymethyl)-1H-pyrazolo[3,4-b]pyridin-5-yl]acrylic acid]	180 to 182
